Measured values: BindingDB's records for doi:10.1002/cbic.201600673 (Université de Nantes, 2017)

How the values were obtained:
Assay in all cases: Fluorescence Polarization Assay
[1] = biological target: Galectin-1 [C3S] (Human, UniProt P09382, C3S)
[2] = biological target: Galectin-3 (Homo sapiens, UniProt P17931)
[3] = biological target: Galectin-7 (Homo sapiens, UniProt P47929)
Galectin-7, sequence (P47929 whole entry): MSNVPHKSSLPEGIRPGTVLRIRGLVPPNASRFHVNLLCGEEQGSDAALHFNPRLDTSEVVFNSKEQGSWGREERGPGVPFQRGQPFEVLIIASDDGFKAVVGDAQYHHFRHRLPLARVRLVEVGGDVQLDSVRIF

Galectin-3, sequence (P17931 whole entry): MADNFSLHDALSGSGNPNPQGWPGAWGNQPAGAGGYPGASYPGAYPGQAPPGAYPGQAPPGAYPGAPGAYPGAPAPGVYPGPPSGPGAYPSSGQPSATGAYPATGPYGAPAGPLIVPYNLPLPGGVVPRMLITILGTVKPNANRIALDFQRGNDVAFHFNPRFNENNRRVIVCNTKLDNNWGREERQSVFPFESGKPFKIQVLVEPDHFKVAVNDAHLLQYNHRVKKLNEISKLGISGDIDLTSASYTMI
Galectin-1 [C3S], sequence (P09382 2-135 C3S limits assumed): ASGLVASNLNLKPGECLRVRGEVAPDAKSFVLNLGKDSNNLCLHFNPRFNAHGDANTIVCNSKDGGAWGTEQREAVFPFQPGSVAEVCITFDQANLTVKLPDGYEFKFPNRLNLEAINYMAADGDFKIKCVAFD

Kd ([1]; 4 °C) | Kd ([1]; 25 °C) | Kd ([2]; 4 °C) | Kd ([2]; 25 °C) | Kd ([3]; 4 °C) | Kd ([3]; 25 °C) | SMILES
16 µM | 43 µM | 0.014 µM | 0.082 µM | 21 µM | 129 µM | COc1cccc(C(=O)NC2C(O)[C@H](O[C@@H]3OC(CO)[C@H](O)C(OCc4ccc5ccccc5c4)C3O)C(CO)O[C@H]2OCCNC(=O)CCCCCN2C(=O)C=CC2=O)c1 (stereo partly drawn) [2-[6-Maleimide)caproyl]ethyl [3-O-(2-naphthyl)methyl-β-D-galactopyranosyl]-(1-4)-2-deoxy-2-(3-methoxybenzamido)-β-D-glucopyranoside (13)]
23 µM |  | 0.66 µM | 3.27 µM | 86 µM |  | COc1cccc(COC2C(O)[C@H](O[C@@H]3C(CO)O[C@@H](N=[N+]=[N-])C(NC(=O)c4cccc(OC)c4)C3O)OC(CO)[C@@H]2O)c1 (stereo partly drawn) [4-O-[3-O-(3-methoxybenzyl)-β-D-galactopyranosyl)]-1-azido-1,2-dideoxy-2-(3-methoxybenzamido)-β-D-glucopyranose (1)]
 |  |  |  | 32 µM |  | OCC1O[C@@H](S[C@@H]2OC(CO)[C@H](O)C(n3cc(-c4cccc(F)c4)nn3)C2O)C(O)C(n2cc(-c3cccc(F)c3)nn2)[C@H]1O (stereo not given in full) [TD139]
27 µM |  | 0.59 µM | 2.99 µM | 90 µM |  | COc1cccc(C(=O)CC2C(O)[C@H](O[C@@H]3OC(CO)[C@H](O)C(OCc4ccc5ccccc5c4)C3O)C(CO)O[C@H]2OCCN=[N+]=[N-])c1 (stereo partly drawn) [[3-O-(2-naphthyl)methyl-β-D-galactopyranosyl]-(1-4)-2-deoxy-2-(3-methoxybenzamido)-β-D-glucopyranoside (11)]
